For the experiment, the system named is SD mice with ANIT induced intrahepatic cholestasis. Put plainly: ANIT-induced intrahepatic cholestasis. The format is in vivo. On the procedure:
42 SPF SD mice were purchased and raised in the SPF experimental animal center of Tongji Medical College of Huazhong University of Science and Technology. They were provided with standard diet and drinking water. The room temperature was controlled at 23±2° C. After 3 days of adaptive feeding, they were given drugs by intragastric administration. 42 SD mice were randomly divided into 7 groups (normal control group, ANIT model group, KD low-dose group, KD medium dose group, KD high-dose group, UDCA positive control group and KD negative control group), 6 mice in each group were weighed and recorded daily. […] Thereafter, the drug was given again every 24 hours for 3 times, and the animals in each group were fasted (water was provided) after the third time. 72 hours later, the animals were killed and samples were collected.

For `C[C@H](CCC(=O)O)[C@H]1CC[C@H]2[C@@H]3[C@@H](O)C[C@@H]4C[C@H](O)CC[C@]4(C)[C@H]3CC[C@]12C` [UDCA, reference compound], the plasma color result (KD 50, 100, 200 mg/kg or UDCA 80 mg/kg by gavage) is on record as “turned light yellow similar to that of the normal control group”. For the same compound, the “hepatic sinusoid and inflammatory cell infiltration (HE staining)” value (different doses of KD, UDCA treatment group) is “normal hepatic sinusoid, obvious hepatocyte gap, and obvious recovery of inflammatory cell infiltration”. The “plasma ALT, AST, AKP, TBIL and DBIL” value (low, medium and high doses of KD, 80 mg/kg UDCA) was “can significantly reduce ALT, AST, AKP, TBIL and DBIL”. In addition, under “medium and high doses of KD, 80 mg/kg UDCA”, the “plasma TBA” value is recorded as “can significantly reduce TBA”.

The values are drawn from patent US20200171065A1, “METHOD FOR TREATING LIVER DISEASE WITH KINSENOSIDE” (HUAZHONG UNIVERSITY OF SCIENCE AND TECHNOLOGY, priority 2017, published 2020).
